Experimental findings from PubChem BioAssay (NCI) are described below.

Some test systems named below: RXF 393 renal; HOP-92 NSCLC; PC-3 prostate; CCRF-CEM leukemia; UACC-257 melanoma; ACHN renal; BT-549 breast; OVCAR-3 ovarian; TK-10 renal; SF-539 CNS.
Assay in all cases: NCI-60 cell line screen, 48 h

Structures are written as SMILES.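 All cell lines were grown in 96-well plates and treated with compound for 48 hours. GI50 is the concentration that inhibits growth by half. TGI is the concentration that stops growth completely.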

In the case of `COc1ccc(S(=O)(=O)NC2=NCCN2C(=S)SN2CCn3c2nsc3=S)cc1`, the GI50 is 4.11 µM with RXF 393 renal; 16.9 µM with HOP-92 NSCLC; 17.5 µM in the test with PC-3 prostate; 7.95 µM with CCRF-CEM leukemia; 16.8 µM in the test with UACC-257 melanoma; 12.9 µM in the test with ACHN renal. Besides, the GI50 with BT-549 breast is 10.4 µM; in the test on OVCAR-3 ovarian it was 15.5 µM; with TK-10 renal, 15.9 µM. Further, the TGI in the test on RXF 393 renal is 22.1 µM; with HOP-92 NSCLC, 35.4 µM; with PC-3 prostate, 40.1 µM; in the test on CCRF-CEM leukemia, 32.4 µM; in the test with UACC-257 melanoma, 50.2 µM; in the test on ACHN renal, 26 µM. In addition, the TGI in the test with BT-549 breast was found to be 23.5 µM; with OVCAR-3 ovarian it was 37.4 µM; in the test with TK-10 renal it was 30.2 µM.
For the compound `O=C(O)C1CC2(C1)CC(C(=O)O)C2` (configuration not stated), the TGI in the test with RXF 393 renal, with PC-3 prostate, in the test with UACC-257 melanoma, in the test with SF-539 CNS, in the test on ACHN renal and in the test with BT-549 breast was above 100 µM throughout. Also, the TGI with OVCAR-3 ovarian and with TK-10 renal was above 100 µM throughout.
In the case of `Nc1nc(N)c(C=Nc2ccc(Br)cc2)c(Nc2ccc(Br)cc2)n1`, the GI50 with RXF 393 renal was 2.89 µM; in the test with PC-3 prostate, 8.34 µM; with CCRF-CEM leukemia, 9.3 µM; with UACC-257 melanoma it was 14.7 µM; in the test on SF-539 CNS it was 12.1 µM; in the test with ACHN renal, 8.96 µM. Besides, the results for the GI50 in the test on BT-549 breast, with OVCAR-3 ovarian and with TK-10 renal were 12.9 µM, 11.8 µM and 13 µM, respectively. The TGI in the test on RXF 393 renal was 13.6 µM; in the test on PC-3 prostate it was 26.4 µM; in the test on CCRF-CEM leukemia it was 26.2 µM; with UACC-257 melanoma, 30.7 µM; in the test on SF-539 CNS, 24.4 µM; with ACHN renal, 28 µM. The values for the TGI in the test on BT-549 breast, with OVCAR-3 ovarian and with TK-10 renal were 25.5 µM, 25.3 µM and 37.6 µM, respectively.
As to `Oc1ccc(O)c(-c2cc(-c3ccc(Cl)cc3)nn2-c2ccccc2)c1`, the GI50 with HOP-92 NSCLC is 2.71 µM; in the test on PC-3 prostate, 3.19 µM; in the test on CCRF-CEM leukemia, 3.06 µM; in the test on UACC-257 melanoma, 4.95 µM; in the test on SF-539 CNS it was 31 µM; in the test on ACHN renal it was 18.6 µM. Besides, the GI50 in the test with BT-549 breast is 21 µM; in the test on OVCAR-3 ovarian, 14.5 µM; with TK-10 renal it was 6.58 µM. Further, the TGI in the test with HOP-92 NSCLC was 22.9 µM; in the test with PC-3 prostate, 13.1 µM; with CCRF-CEM leukemia, above 100 µM; in the test with UACC-257 melanoma it was 19.1 µM; in the test with SF-539 CNS, 52.5 µM; in the test on ACHN renal, 32.6 µM. Also, the figures for the TGI in the test on BT-549 breast, in the test on OVCAR-3 ovarian and in the test on TK-10 renal were 52.3 µM, 30.7 µM and 25.6 µM, respectively.
Turning to `COc1cccc(/C=N/NC(=S)NC2CC3CCC2C3)c1O` (configuration not stated), the GI50 in the test with RXF 393 renal was 13 µM; in the test with PC-3 prostate, 8.5 µM; with CCRF-CEM leukemia, 6.65 µM; in the test with UACC-257 melanoma, 15.1 µM; in the test with SF-539 CNS it was 10.8 µM; in the test on ACHN renal, 2.5 µM. For the same compound, the GI50 in the test with BT-549 breast is 14.5 µM; in the test with OVCAR-3 ovarian, 3.07 µM; in the test with TK-10 renal it was 16.4 µM. For the same compound, the TGI with RXF 393 renal was determined as 28.1 µM; with PC-3 prostate it was 27 µM; with CCRF-CEM leukemia it was 38.7 µM; with UACC-257 melanoma, 38.7 µM; in the test with SF-539 CNS, 29.3 µM; in the test on ACHN renal, 8.14 µM. Further, the TGI in the test on BT-549 breast was determined as 57.3 µM; with OVCAR-3 ovarian, 9.45 µM; in the test on TK-10 renal it was 31.5 µM.
As to `FC(F)(F)c1ccc(-c2cnc(-n3cc(COCCN4CCCCC4)nn3)nc2NC2CCCCCC2)cc1`, the GI50 in the test with RXF 393 renal was 2.51 µM; in the test with HOP-92 NSCLC, 0.523 µM; with PC-3 prostate it was 2.93 µM; in the test on CCRF-CEM leukemia, 4.23 µM; with SF-539 CNS, 3.89 µM; with ACHN renal, 4.53 µM. In addition, the GI50 is 4.33 µM in the test on BT-549 breast, 3.98 µM with OVCAR-3 ovarian and 4.14 µM in the test with TK-10 renal. Besides, the TGI in the test on RXF 393 renal amounted to 5.67 µM; in the test with HOP-92 NSCLC, 3.37 µM; with PC-3 prostate, 6.18 µM; in the test on CCRF-CEM leukemia it was 10.7 µM; in the test on SF-539 CNS it was 7.42 µM; with ACHN renal it was 8.39 µM. The figures for the TGI in the test with BT-549 breast, in the test on OVCAR-3 ovarian and in the test with TK-10 renal were 8.55 µM, 7.48 µM and 7.81 µM, respectively.
With `CC(=O)c1c(CN(C)c2ccccc2)n([O-])c2ccccc2[n+]1=O`, the GI50 is 21.2 µM in the test with RXF 393 renal; 11.7 µM with PC-3 prostate; 23 µM with CCRF-CEM leukemia; 89.2 µM in the test with UACC-257 melanoma; 28.7 µM in the test with SF-539 CNS; 32.9 µM in the test on ACHN renal. Besides, the GI50 in the test on BT-549 breast is 25.1 µM; with TK-10 renal, 45.8 µM. Further, the TGI with RXF 393 renal was 62.7 µM; in the test on PC-3 prostate it was 44.3 µM; in the test on CCRF-CEM leukemia, 96.7 µM; with UACC-257 melanoma, above 100 µM; with SF-539 CNS it was 86.6 µM; in the test on ACHN renal, above 100 µM. The TGI with BT-549 breast was 86.6 µM; in the test on TK-10 renal, above 100 µM.
Regarding `Nc1cc(O)ccc1N=Nc1ccc(-c2nc3ccccc3[nH]2)cc1`, the GI50 in the test on HOP-92 NSCLC is 0.67 µM; in the test with PC-3 prostate, 20.4 µM; in the test on UACC-257 melanoma, 65.3 µM; in the test with ACHN renal, 34 µM; with BT-549 breast it was above 100 µM; in the test with OVCAR-3 ovarian, 13.7 µM. Moreover, the GI50 in the test with TK-10 renal is 16.1 µM. The TGI is 15.5 µM with HOP-92 NSCLC; above 100 µM in the test with PC-3 prostate; above 100 µM with UACC-257 melanoma; above 100 µM with ACHN renal; above 100 µM in the test with BT-549 breast; 49.6 µM with OVCAR-3 ovarian. In the test with TK-10 renal, this compound gave a TGI above 100 µM.
Turning to `COc1ccc(C(c2ccc(OCCN(C)C)cc2)c2cc3ccccc3c3ccccc23)cc1` (configuration not stated), the GI50 in the test on RXF 393 renal is 1.44 µM; in the test with HOP-92 NSCLC it was 1.31 µM; in the test with PC-3 prostate, 1.76 µM; in the test on CCRF-CEM leukemia, 1.8 µM; in the test with SF-539 CNS it was 1.7 µM; in the test with ACHN renal, 1.7 µM. The values for the GI50 in the test on BT-549 breast, in the test with OVCAR-3 ovarian and with TK-10 renal were 1.78 µM, 1.66 µM and 1.64 µM, respectively. In addition, the TGI in the test with RXF 393 renal is 2.82 µM; with HOP-92 NSCLC, 2.64 µM; with PC-3 prostate, 3.5 µM; with CCRF-CEM leukemia, 3.91 µM; in the test with SF-539 CNS it was 3.13 µM; in the test with ACHN renal, 3.13 µM. For the same compound, the TGI in the test with BT-549 breast came out at 3.35 µM; in the test on OVCAR-3 ovarian it was 3.07 µM; in the test with TK-10 renal, 3.1 µM.
On to `COc1cc(-c2cc(-c3ccc(Nc4ccnc5cc(Cl)ccc45)cc3)nc(N3CCOCC3)n2)cc(OC)c1OC`, for which the GI50 in the test on RXF 393 renal is 1.8 µM; in the test on HOP-92 NSCLC, 1.85 µM; with PC-3 prostate, 1.78 µM; in the test with CCRF-CEM leukemia, 1.54 µM; in the test on SF-539 CNS, 1.94 µM; in the test with ACHN renal it was 2.34 µM. Also, the GI50 in the test on BT-549 breast was 2.57 µM; in the test on OVCAR-3 ovarian, 1.89 µM; in the test on TK-10 renal, 1.82 µM. Also, the TGI with RXF 393 renal was 4.44 µM; in the test with HOP-92 NSCLC it was 4.81 µM; with PC-3 prostate, 3.69 µM; in the test on CCRF-CEM leukemia it was 6.17 µM; in the test with SF-539 CNS, 3.67 µM; in the test on ACHN renal it was 5.02 µM. The TGI in the test on BT-549 breast stood at 7.19 µM; in the test with OVCAR-3 ovarian, 3.67 µM; with TK-10 renal, 3.3 µM.
With `Cc1cn(C2C=CC(CO)O2)c(=O)[nH]c1=O` (configuration not stated), the TGI with HOP-92 NSCLC, in the test on PC-3 prostate, with CCRF-CEM leukemia, with UACC-257 melanoma, with SF-539 CNS and with ACHN renal was above 1000 µM throughout. Besides, the TGI with BT-549 breast, in the test on OVCAR-3 ovarian and in the test with TK-10 renal was above 1000 µM each time.
In the case of `COc1cccc(CSCC(=O)O)c1`, the TGI in the test on RXF 393 renal, with HOP-92 NSCLC, in the test on PC-3 prostate, in the test on UACC-257 melanoma, in the test with SF-539 CNS and in the test on ACHN renal was above 100 µM throughout. Besides, the TGI in the test with BT-549 breast, with OVCAR-3 ovarian and in the test with TK-10 renal was above 100 µM in each case.
In the case of `Clc1ccc(-c2csc(Nc3cccc(-c4csc(-c5ccccc5)n4)c3)n2)cc1`, the GI50 in the test on RXF 393 renal is 9.89 µM; with HOP-92 NSCLC, 12.5 µM; in the test with PC-3 prostate, 5.71 µM; in the test on UACC-257 melanoma, 14.9 µM; in the test with ACHN renal, 14.6 µM; in the test on BT-549 breast it was 15.8 µM. Also, the GI50 with OVCAR-3 ovarian was 11.4 µM; in the test with TK-10 renal it was 19.8 µM. Besides, the TGI was 21.9 µM in the test with RXF 393 renal; above 50 µM with HOP-92 NSCLC; 17 µM with PC-3 prostate; 29 µM in the test with UACC-257 melanoma; 42.1 µM in the test on ACHN renal; 31.4 µM with BT-549 breast. The TGI in the test on OVCAR-3 ovarian is 32.4 µM; in the test with TK-10 renal, above 50 µM.
Turning to `COc1cc(OC)c2nccc(NCCCN(C)C)c2c1[N+](=O)[O-]`, the TGI in the test on HOP-92 NSCLC, in the test with PC-3 prostate, with CCRF-CEM leukemia, in the test on UACC-257 melanoma, with SF-539 CNS and with ACHN renal was above 100 µM in each case. The TGI in the test on BT-549 breast, with OVCAR-3 ovarian and in the test with TK-10 renal was above 100 µM in each case.
